System: MIN6 cells overexpressing ALDH1A3
Experiment: Glucose-stimulated insulin secretion in the presence of the ALDH inhibitor DEAB
Format: cell-based, mouse
Settings: MIN6 cells overexpressing ALDH1A3, in the presence of DEAB (FIG. 12F)

Structure (SMILES): CCN(CC)c1ccc(C=O)cc1 [DEAB, N,N-diethylaminobenzaldehyde]
- effect on insulin secretion: did not detect an effect

From patent US10732173B2, “Use of aldehyde dehydrogenase as biomarker for beta-cell dysfunction and loss” (THE TRUSTEES OF COLUMBIA UNIVERSITY IN THE CITY OF NEW YORK, priority 2015, dated 2020)
